Where “and” joins values, the source holds several entries; their conditions need not be identical. Equal values may be shown once. Read-outs that look alike come from different tables or passages of the source.
Key:
[1] = system: Mycobacterium tuberculosis strain H37Rv ΔctaE-ΔqcrCAB; assay: microbe, parasite or virus in culture; format: cell-based; conditions: 240 h
[2] = system: Mitochondrial toxicity (Glu/Gal); assay: Mitochondrial toxicity (Glu/Gal) assay; format: cell-based; conditions: for Mitotoxicity Score: Glu/Gal assay, <3 indicates no mitotoxicity alerts
Excerpt: (§1) The compounds of the invention/examples may have advantages associated with in vitro potency, kill kinetics (i.e. bactericidal effect) in vitro, PK properties, food effect, safety/toxicity (including liver toxicity, coagulation, 5-LO oxygenase), metabolic stability, Ames II negativity, MNT negativity, aqueous based solubility (and ability to formulate) and/or cardiovascular effect e.g. on animals (e.g. anesthetized guinea pig). The data below that was generated/calculated may be obtained using standard methods/assays, for instance that are available in the literature or which may be performed by a supplier (e.g. Microsomal Stability Assay—Cyprotex, Mitochondrial toxicity (Glu/Gal) assay—Cyprotex, as well as literature CYP cocktail inhibition assays).
Compounds of the invention/examples, may therefore have the advantage that: • No in vitro cardiotoxicity is observed (for example either due to the CVS results or due to the Glu/Gal assay results, for instance low mitotoxicity (<3 in the Glu/Gal assay indicates no mitotoxicity alerts); and/or • No reactive metabolite formation is observed (e.g. GSH);

[3] = system: rCaCH; assay: Cardio tox rCaCH; conditions: read-out: Cardio tox rCaCH (pIC50) (converted)
Excerpt: as §1

[4] = system: rNaCH; assay: Cardio tox rNaCH
Excerpt: as §1

[5] = molecular target: hERG(DOF) (Homo sapiens, UniProt Q12809); assay: Cardio tox hERG(DOF)
Excerpt: as §1

[6] = system: Mycobacterium tuberculosis (Mtb) bacilli, strain H37Ra; assay: Phenotypic assay of O2 consumption rate (OCR), Test 4, Seahorse XFe96, with Compound X; conditions: after Compound X 0.9 μM, test compound 10 μM and uncoupler CCCP 1 μM

hERG(DOF), sequence (Q12809 whole entry): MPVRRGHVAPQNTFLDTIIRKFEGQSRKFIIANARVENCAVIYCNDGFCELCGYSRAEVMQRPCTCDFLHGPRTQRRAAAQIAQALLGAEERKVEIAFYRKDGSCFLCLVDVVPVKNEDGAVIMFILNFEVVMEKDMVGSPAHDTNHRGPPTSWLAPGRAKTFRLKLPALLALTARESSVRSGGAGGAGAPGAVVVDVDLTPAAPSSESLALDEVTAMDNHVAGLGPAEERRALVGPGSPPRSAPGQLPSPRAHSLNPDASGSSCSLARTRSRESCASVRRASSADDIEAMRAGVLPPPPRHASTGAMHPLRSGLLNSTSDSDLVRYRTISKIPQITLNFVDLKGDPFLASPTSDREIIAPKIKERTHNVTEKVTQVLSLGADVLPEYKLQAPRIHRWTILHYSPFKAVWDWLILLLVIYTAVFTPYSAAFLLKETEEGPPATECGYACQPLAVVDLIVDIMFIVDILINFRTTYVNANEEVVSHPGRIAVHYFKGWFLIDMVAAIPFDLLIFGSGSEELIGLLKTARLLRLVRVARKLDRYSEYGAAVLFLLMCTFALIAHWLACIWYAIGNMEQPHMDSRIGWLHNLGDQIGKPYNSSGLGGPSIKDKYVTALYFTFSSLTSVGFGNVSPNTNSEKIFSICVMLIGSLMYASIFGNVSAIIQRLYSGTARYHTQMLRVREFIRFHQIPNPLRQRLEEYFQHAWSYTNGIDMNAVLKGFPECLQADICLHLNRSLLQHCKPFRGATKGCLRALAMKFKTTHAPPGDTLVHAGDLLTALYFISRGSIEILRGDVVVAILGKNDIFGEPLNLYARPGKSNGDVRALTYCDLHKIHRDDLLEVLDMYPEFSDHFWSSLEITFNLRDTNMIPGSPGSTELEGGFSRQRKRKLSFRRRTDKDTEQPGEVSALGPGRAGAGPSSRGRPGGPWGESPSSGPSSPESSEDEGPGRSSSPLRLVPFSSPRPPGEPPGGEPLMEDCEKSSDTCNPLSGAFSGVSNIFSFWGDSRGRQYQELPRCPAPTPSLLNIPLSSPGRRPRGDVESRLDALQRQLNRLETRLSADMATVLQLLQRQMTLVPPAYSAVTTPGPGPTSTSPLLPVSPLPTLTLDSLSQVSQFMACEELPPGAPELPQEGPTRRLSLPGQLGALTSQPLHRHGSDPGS

Row | Compound | IC50 [1] [µM] | Mitotoxicity Score [2] | IC50 [3] [µM] | IC50 [4] [µM] | IC50 [5] [µM] | melting point [°C] | (ii) % OCR after cccp [6] | IC50 ([2]; galactose medium, read-out: IC50, gal) [µM] | IC50 ([2]; glucose medium, read-out: IC50, glu) [µM]
1 | Cc1c(-c2ccc3cc(-c4cccc(OC(F)(F)F)c4)nn3c2)[nH]c2ccccc2c1=O [Compound 1] | 27.8 | positive | 3.5 | 3.02 | 3.98 | 243.7 | 93.2% |  | 
2 | Cc1c(-c2ccc3nc(Cc4ccc(OC(F)(F)F)cc4)cn3c2)[nH]c2ccccc2c1=O [Compound 2] | 91.8 | positive | > 10 | 2.6 | 1.8 | 244.8 | 112.0% |  | 
3 | Cc1c(-c2ccc3cc(-c4cccc(OC(F)(F)F)c4)cn3c2)[nH]c2ccccc2c1=O [Compound 3] | > 100 | negative | > 10 | 1.9 | > 10 | 257.8 | 196.1% and 131.0% |  | 
4 | Cc1c(-c2ccc3nc(-c4ccccc4)cn3c2)[nH]c2ccccc2c1=O [Compound 4] | > 100 |  |  |  |  | 337.2 | 144.1% |  | 
5 | Cc1c(-c2ccc3nc(-c4cccc(OC(F)(F)F)c4)cn3c2)[nH]c2ccccc2c1=O [Compound 5] | > 100 |  | > 10 | 3.8 | > 10 | 229.9 | 159.3% |  | 
6 | CCc1nc2ccc(-c3[nH]c4ccccc4c(=O)c3C)cn2c1C(=O)NCc1ccc(OC(F)(F)F)cc1 [Compound 7] |  | negative |  |  |  |  | 110.6% |  | 
7 | Cc1c(-c2ccc3cc(-c4cccc(OC(F)(F)F)c4)nn3c2)[nH]c2ccccc2c1=O [Compound 8] |  | positive |  |  |  |  | 93.125% | 10.8 | ≥ 200
